Assay results from patent publication US20030073862A1, “Compounds” (priority 2001, published 2003).

Assays:
human PPARγ LBD = human PPARγ LBD (Homo sapiens, UniProt P37231); conditions: FIG. 1
Sequence of human PPARγ LBD (P37231 238-503 limits assumed): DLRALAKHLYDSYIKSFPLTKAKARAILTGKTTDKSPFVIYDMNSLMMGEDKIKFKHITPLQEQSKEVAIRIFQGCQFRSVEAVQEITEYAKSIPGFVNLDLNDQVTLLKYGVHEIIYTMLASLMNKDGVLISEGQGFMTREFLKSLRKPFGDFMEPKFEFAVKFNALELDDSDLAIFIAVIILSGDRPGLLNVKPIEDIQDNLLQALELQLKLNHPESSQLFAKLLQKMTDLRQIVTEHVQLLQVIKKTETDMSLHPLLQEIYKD

melting point: 165 to 168 °C
Compound: O=C(Nc1ccc(OCc2cccs2)cc1C(=O)[O-])c1ccc(Cl)cc1Cl.[Li+] [Example 1, Lithium 2-[(2,4-dichlorobenzoyl)amino]-5-(2-thienylmethoxy)benzoate]
location of the compound in the structure of the human PPARγ LBD complex (human PPARγ LBD): located in the ligand binding pocket of human PPARγ
